Literature values as cited in patent US20250325469A1, “Inhibitors of atp synthase - cosmetic and therapeutic uses” (priority 2021, published 2025).
Read-outs that look alike come from different tables or passages of the source. Where no end group is shown, it is not given here. [ ]: non-standard residue; d: D form.

How the values were obtained:
[1] = cited from earlier work
[2] = cited from earlier work; remark: listed apart in the source
[3] = cited from earlier work; remark: listed apart in the source
[4] = 5.5 (±1.7) ug/kg/min i.v. with inhaled nitric oxide (5 p.p.m.), across all subjects [183]; cited from earlier work
cells [5] = conditions: cited from earlier work
cells [6] = conditions: variant with side-chain chiral amino acids swopped; cited from earlier work
[7] = target: bovine F1F0 ATP hydrolysis (Bos taurus, UniProt P00829+P19483); conditions: cited from earlier work
[8] = COPD patients, 100 mg oral daily for 1 year, at year end
[9] = 7.47 ug/kg/min for 2 hours (60 mg), at the end of the infusion period
[10] = COPD patients, 100 mg oral daily for 1 year [168]

**Q.** What does the source list for `C=CCNc1nc(NCC=C)nc(N2CCN(C(c3ccc(F)cc3)c3ccc(F)cc3)CC2)n1` [almitrine dimesylate]?
**A.** plasma [almitrine] ([1]; COPD patients, 50 mg twice daily for 8 weeks, 2 weeks after the study): 104 ng/mL; plasma [almitrine] before the morning dose ([1]; COPD patients, 50 mg twice daily, day 14): 93 ng/mL; plasma [almitrine] before the morning dose ([1]; COPD patients, 50 mg twice daily, day 28): 134 ng/mL; plasma [almitrine] before the morning dose ([1]; COPD patients, 50 mg twice daily, day 42): 148 ng/mL; plasma [almitrine] before the morning dose ([1]; COPD patients, 50 mg twice daily, day 56): 171 ng/mL; average trough plasma [almitrine] ([1]; COPD patients, 75 mg oral daily for 6 months, at study end): 302 ng/mL; mean plasma [almitrine] ([1]; COPD patients, 100 mg oral daily 2 months then 1 month none, cycle for 1 year, at end): 285 ng/mL; mean plasma [almitrine] [1, 8]: 409.35 ng/mL; trough plasma [almitrine] [1, 8]: 301.8 ng/mL; plasma [almitrine] ([1]; COPD patients, 100 mg twice daily for 8 weeks, 2 weeks after the study): 311 ng/mL; plasma [almitrine] before the morning dose ([1]; COPD patients, 100 mg twice daily, day 14): 268 ng/mL; plasma [almitrine] before the morning dose ([1]; COPD patients, 100 mg twice daily, day 28): 409 ng/mL; plasma [almitrine] before the morning dose ([1]; COPD patients, 100 mg twice daily, day 42): 442 ng/mL; plasma [almitrine] before the morning dose ([1]; COPD patients, 100 mg twice daily, day 56): 572 ng/mL; plasma [almitrine] ([1]; COPD patients, 100-200 mg daily, those presenting peripheral neuropathy, at 3 months): 344 ng/mL; plasma [almitrine] ([1]; COPD patients, 100-200 mg daily, those presenting peripheral neuropathy, at 12 months): 617 ng/mL; plasma [almitrine] ([1]; COPD patients, 100-200 mg daily, those without peripheral neuropathy, at 3 months): 249 ng/mL; plasma [almitrine] ([1]; COPD patients, 100-200 mg daily, those without peripheral neuropathy, at 12 months): 387 ng/mL; plasma [almitrine], two 50 mg doses per day vs a single 100 mg oral dose ([1]; COPD patients, long term [167]): 2 to 3 times higher; time of peak plasma concentration of almitrine after consuming ([1]; human, oral [151]): 3.5 ± 0.7 h; oral dose bioavailable ([1]; on average across subjects): 85%; lowest observed almitrine plasma level [2, 9]: 242 ng/mL; mean almitrine plasma level [2, 9]: 327 ng/mL; mean almitrine plasma level ([2]; 7.47 ug/kg/min for 2 hours, 15 minutes afterwards): 157 ng/mL; mean almitrine plasma level ([2]; 7.47 ug/kg/min for 2 hours, 30 minutes afterwards): 154 ng/mL; mean almitrine plasma level ([2]; 7.47 ug/kg/min for 2 hours, 60 minutes afterwards): 105 ng/mL; mean almitrine plasma level ([2]; 7.47 ug/kg/min for 2 hours, 120 minutes afterwards): 67 ng/mL; mean almitrine plasma level ([2]; 7.47 ug/kg/min for 2 hours, 600 minutes afterwards): 55 ng/mL; adverse effects ([3]; COPD patients, 75 mg oral daily for 6 months): no adverse effects; increase in occurrence of a nervous system disorder vs placebo control [3, 10]: 4%; increase in occurrence of paraesthesia vs placebo control [3, 10]: 5%; increase in occurrence of polyneuropathy vs placebo control [3, 10]: 3.6%; incidence of peripheral neuropathy, almitrine vs control group ([3]; COPD patients, 100-200 mg daily for a year [151]): 5 times higher; time at which peripheral neuropathy started to manifest, on average ([3]; COPD patients, 100-200 mg daily for a year, in a minority [151]): 7 months; safety ([3]; healthy subjects, 400 mg oral per day, short term [163]): safe; increase of arterial pO2 [4]: > 30%

**Q.** What does the source list for “Kkwkmrrnqfwvkvqr (K[dK][dW][dK][dM][dR][dR][dN][dQ][dF][dW][dV][dK][dV][dQ][dR]; not fully specified (residue 1); printed as Kkwkmrrnqfwvkvqr; also: retroinverse) [Retroinverse penetratin]”?
**A.** cellular toxicity (cells [5]): some cellular toxicity; cellular penetration compared with penetratin (cells [6]): greater cellular penetration than penetratin

B1: yeast IF1 protein: IF1 protein sequence from yeast (protein, UniProt P01097 23-85, looked up)
F(1)-ATPase inhibitor IF(1), …: SEGSTGTPRGSGSEDSFVKRERATEDFFVRQREKEQLRHLKEQLEKQRKKIDSLENKIDSMTK
**Q.** For B1, which “inhibition of bovine F1F0 ATP hydrolysis” value [7] is on record?
**A.** The value was “can inhibit”.
